Laboratory results taken from patent US20220409573A1, “Hippocampus Regeneration And Memory Recovery” (INNOBIOSCIENCE, LLC, priority 2021, published 2022).
Entries after “also recorded” stand apart in the source; their conditions may differ.

Columns and labels:
[1] = test system: APPswe/PS-1 double transgenic mice; assay: Memory flexibility test (modified Morris Water Maze); type: in vivo; conditions: 7-month-old APPswe/PS-1 mice, 2.0 mg/kg IP three times per week, four weeks, vs Tg control
[2] = test system: HEK293T cells; assay: TOP/FOP flash luciferase reporter assay; type: cell-based
Method: Luciferase Assay. 150,000 HEK293T cells were seeded in triplicate per condition and kept for 24 hours at 37° C. with 5% CO2. The cultures were transfected with TOPflash or FOPflash (400 ng), which are firefly-luciferase reporter DNA constructs (Milipore), using LipofectAMINE 2000 (Invitrogen). To control for transfection pRL-TK (10 ng) was included in all transfections. […] Values were normalized by the renilla value from the same well. To statistically compare treatments ANOVA was used.

[3] = test system: Aβ aggregates in brain of APPswe/PS-1 mice; assay: Thioflavine-S staining of amyloid plaques in treated APPswe/PS-1 mice; type: in vivo
[4] = test system: dentate gyrus of the hippocampus of wild-type mice; assay: Adult hippocampal neurogenesis (Ki67, DCX immunofluorescence); type: in vivo; conditions: for percentage of the granular cell layer covered by DCX staining / total number of Ki67+ cells in the SGZ: vs vehicle, 2 mg/kg
Method: Animals. Two-month-old C57BC6 wild-type mice were treated and handled according to National Institutes of Health guidelines (NIH, […], Md.). The treatments were performed by intraperitoneal (ip) injection of 2.0 mg/kg ANDRO and wild-type control animals were injected only with saline solution as vehicle.
Perfusion and postfixation. Mice were anesthetized (100 μg ketamine+10 μg xylazine in 10 μl saline/g), and then transcardially perfused with saline, followed by 4% paraformaldehyde (PFA) in 0.1M PBS. The brains were removed and incubated inPBS-4% PFA for 24 h at room temperature, dehydrated in 30% sucrose andkept at 4° C. until analysis.
Tissue sectioning. After dehydration,each mouse brain was sectioned on a cryostate in 12 sets of serial coronal sections of 40 μm thickness (Leica Microsystems,Wetzlar, Germany) and collected in ice-cold-PBS in multiwell dishes.Each set contained 5-7 sections covering the entire length of the hippocampus.
Inmunofluorescence for Ki67 and Doublecortin (DCX). Sections were washed with PBS 3 times for 5 min and then incubated in blocking solution (3% donkey serum, 3% BSA, 0.5% Triton X-100 in PBS) for 4 h. Then, tissues were incubated overenight with primary antibodies at 4° C. Primary antibodiesused were:rabbit anti-Ki67 (Abcam), rabbit anti-DCX (Cell Signaling Technology Inc., Beverly, Mass., USA), monoclonal anti-NeuN (Millipore, Billerica, Mass., USA). After washing 3 times with 0.5% Triton X-100 PBS, sections were incubated with Dy Light (Abcam) conjugated secondary antibodies for 2 h at room temperature. Slices were mounted on gelatin-coated slides with Fluoromont-G(Electron Microscopy Sciences, Hatfield, Pa., USA). For quantification, Ki67 positive cells were countedusing a fluorescence microscope (Olympus BX51, Tokyo, Japan). Cells were counted in all sections of one set (see tissue sectioning). Total cells counted in one set were multiplied by the total number of sets to obtain an estimation of the total number of Ki67+ cells in the complete hippocampus. For quantification of the % area covered by DCX, double labeling DCX/NeuN was carried. The total area of the granular cell layer was estimated as the area positive for NeuN staining and the percentage of this area covered by DCX staining was estimated. This image analysis was carried out using the ImageJ software (NIH, USA). Images shown were analyzed by confocal laser microscopy (Olympus FV 1000) and z-projections were generated with ImageJ software.

[5] = test system: CA3-CA1 transmission in the hippocampus of APPswe/PS-1 mice; assay: LTP by TBS in hippocampal CA1 slices from treated APPswe/PS-1 mice; type: in vivo; conditions: slices from the two sets (7- and 12-month-old) of treated APPswe/PS-1 mice
[6] = test system: CA3-CA1 connections in hippocampal slices; assay: Electrophysiology in Wt hippocampal slices (fEPSP, PPF, LTP, LTD); type: cell-based, mice
Method: Slice Preparation and Electrophysiology. […] Slices were transferred to an experimental chamber (2 ml), superfused (3 ml/min, at 20-22° C.) with gassed ACSF and visualized by trans-illumination with a binocular microscope (MSZ-10, Nikon, Melville, N.Y.). To evoke field excitatory postsynaptic potentials (fEPSPs), we stimulate with bipolar concentric electrodes (Platinum/Iridium, 125 μm OD diameter, FHC Inc., Bowdoin, Me.) generated by a stimulator (Axon 700b, Molecular Devices, Sunnyvale, Calif.) and connected to an isolation unit (Isoflex, AMPI, Jerusalem, Israel) . The stimulation was in the Stratum Radiatum within 100-200 μm from the recording site. The paired pulse facilitation index was calculated by ((R2−R1)/R1), where R1 and R2 were the peak amplitudes of the first and second fEPSP respectively. To generate LTP we used Theta Burst Stimulation (TBS) consisting of 5 trains of stimulus with an inter-train interval of 20 s. Each train consisted of 10 bursts at 5 Hz and each burst having 4 pulses at 100 Hz. To generate LTD we used Low Frequency Stimulation (LFS) consisting in 900 paired pulses at 1 Hz. Recordings were filtered at 2.0-3.0 kHz, sampled at 4.0 kHz using an A/D converter, and stored with pClamp 10 (Molecular Devices). Evoked postsynaptic responses were analyzed off-line, using an analysis software (pClampfit, Molecular Devices), which allowed visual detection of events, computing only those events that exceeded and arbitrary threshold.

[7] = test system: APPswe/PS-1 double transgenic mice; assay: Classical Morris Water Maze test; type: in vivo; conditions: 12 month-old APPswe/PS-1 mice, 2.0 mg/kg IP three times per week, four weeks, vs Tg control
[8] = test system: tau phosphorylation in the hippocampus of APPswe/PS-1 mice; assay: Tau phosphorylation immunoblot (PHF-1, AT8) in treated APPswe/PS-1 mice; type: in vivo; conditions: hippocampus of 6 month-old APPswe/PS-1 mice, vs untreated
[9] = young APPswe/PS-1 mice, vs controls
[10] = 2-month-old mice, 2 mg/kg i.p. 3 times per week for 4 weeks

C=C1CC[C@@H]2C(C)(CO)[C@H](O)CC[C@@]2(C)C1C/C=C1/C(=O)OC[C@H]1O (stereo in doubt) [ANDRO, 3-(2-(Decahydro-6-hydroxy-5-(hydroxymethyl)-5,8a-dimethyl-2-methylenenaphthyl)ethylidene)dihydro-4-hydroxyfuran-2(3H)-one]
number of trial to criterion of learning [1]: reduction in the number of trial to criterion of learning
TOPflash reporter activity ([2]; ANDRO 10 μM or 6-BIO 10 nM, 24 h): significant increase
increase of luciferase reporter over control ([2]; TOPflash, HEK293T): 4 fold
plaque size distribution (cumulative frequency) ([3]; 7 month-old APPswe/PS-1 mice): shift in their distribution toward smaller plaque size
amyloid plaques stained with Th-S ([3]; 7 month-old APPswe/PS-1 mice, cortex and hippocampus, vs untreated): reduction of amyloid plaques
amyloid deposit levels (amyloid burden area) ([3]; hippocampus or cortex, FIG. 3F (12 month-old mice per legend)): no change in amyloid deposit levels
immature plaques (type 1) [3, 9]: increase significantly
type 2a and 2c plaques in the total brain [3, 9]: no significant differences
type 2b plaques [3, 9]: significantly decreased
density of immature neurons positive for DCX [4, 10]: increase in the density of immature neurons
percentage of the granular cell layer covered by DCX staining [4, 10]: significantly increased
total number of Ki67+ cells in the SGZ [4, 10]: significantly increased the total number of Ki67^+ cells
total number of Ki67+ cells in the SGZ ([4]; 2-month-old mice, 2 mg/kg i.p. 3 times per week for 4 weeks, listed as Ando): significant increase in the total number of Ki67^+ cell
percentage of the granular cell layer covered by DCX staining ([4]; 2-month-old mice, 2 mg/kg i.p. 3 times per week for 4 weeks, listed as Andro): significant increase in the percentage of the granular cell layer area covered by DCX staining
morphology of DCX+ cells ([4]; compared to control mice): more complex morphology
LTP induction [5]: recovery in the capacity to induce a LTP; also recorded: have the property to induce a LTP that is maintained for 1 h
fEPSP amplitude (basal synaptic transmission) ([6]; ANDRO (5 μM), 30 min, Wt slices): increased the fEPSP amplitude
paired pulse facilitation (PPF) ratio ([6]; Wt slices): does not increase PPF ratio
LTP induction or maintenance ([6]; Wt slices in presence of ANDRO, TBS): do not observed alteration in the LTP induction or maintenance
induction of LTD (fEPSP slope after LFS) ([6]; hippocampal slices, 6-BIO 10 nM): LTD was inhibited
escape latency [7]: significantly lower escape latency values
PHF-1- and AT8-positive tau levels [8]: reduction in PHF-1- and AT8-positive tau levels
